Data on 75 molecules can be found in paper PMC13083723 (Patterns, 2026).

For this assay, the system named is Vero-E6 cells. Kind of assay: cells. In kind it is cell-based. As to conditions: Chlorocebus sabaeus, Vero C1008, 24 h, read-out: PL_Result.

Molecules are shown by their SMILES. Residues, ends and D or L forms follow the SMILES beside them.

Turning to `Cc1nccc2[nH]c(=O)ccc12` [SPE_K40715924], the activation at 10 µM is -2.15%.

Turning to `CC(O)(C(=O)Nc1ccc(S(=O)(=O)c2ccccc2)cc1)C(F)(F)F` (stereo not drawn) [SPE_A62209527], the activation at 10 µM was -3.22%.

As to `CCOc1cc(N2CCC(O)CC2)ccc1Nc1ncc2c(n1)N(C)c1ccccc1C(=O)N2C` [SPE_K50387473], the activation at 10 µM was -6.3%.

In the case of `NC(=O)c1cccc2cn(-c3ccc([C@@H]4CCCNC4)cc3)nc12` [SPE_K54955827], the activation at 10 µM is -6.71%.

In the case of `COc1ccc(OC)c(C(O)CNC(=O)CN)c1` (stereo not drawn) [SPE_A79981887], the activation at 10 µM amounted to 8.02%.

Consider `CCOC(=O)c1cc(C#N)c(N2CCC(C(=O)NS(=O)(=O)Cc3ccccc3)CC2)nc1C` [SPE_K77060810], for which the activation at 10 µM is -0.985%.

In the case of `CCC(N)C(O)c1ccc(O)c(O)c1` (stereo not drawn) [SPE_A68509429], the activation at 10 µM is -8.71%.

As to `NC(=O)C[C@H](N)C(=O)O` [SPE_K06665116], the activation at 10 µM is -6.33%.

Consider `COc1ccc(-c2sc(NC(=O)C(C)(C)C)nc2C)cc1S(=O)(=O)Nc1ccc(O)cc1` [SPE_K75528696], for which the activation at 10 µM came to 21.7%.

Take `COc1cc2c(cc1C(F)(F)F)N(C(=O)Nc1cc(F)cc(-c3cccnc3)c1)CC2` [SPE_K15424032]: the activation at 10 µM stood at 13.1%.

In the case of `NC1CCN(c2c(F)cc3c(=O)c(C(=O)O)cn(C4CC4)c3c2Cl)C1` (stereo not drawn) [SPE_A93964801], the activation at 10 µM was -2.8%.

For the molecule `CC(C)(C)OC(=O)N[C@H]1CCCCC/C=C\[C@@H]2C[C@@]2(C(=O)NS(=O)(=O)C2CC2)NC(=O)[C@@H]2C[C@@H](OC(=O)N3Cc4cccc(F)c4C3)CN2C1=O` [SPE_K08111240], the activation at 10 µM is -7.46%.

Take `CC(C)[C@@H](N)C(=O)O` [SPE_K59424860]: the activation at 10 µM came out at 0.189%.

Turning to `CC[C@]12CCCN3CCc4c(n(c5ccccc45)C(=O)C1)[C@@H]32` [SPE_K40227168], the activation at 10 µM was -8.29%.

As to `CN(C)C(=O)Oc1cc(OC(=O)N(C)C)cc(C(O)CNC(C)(C)C)c1` (stereo not drawn) [SPE_A17462676], the activation at 10 µM is -4.78%.

Regarding `COc1cc2c(cc1OC)C(c1ccc(N)cc1)=NNC(=O)C2` [SPE_K42859542], the activation at 10 µM worked out at 0.928%.

For `c1ccc(-c2n[nH]c3c2oc2ccccc23)cc1` [SPE_K16664969], the activation at 10 µM is -3.59%.

As to `CCN(CC)CCOC(=O)C(c1ccccc1)C1CCCCC1` (stereo not drawn) [SPE_A22267103], the activation at 10 µM turned out to be 53.9%.

Turning to `CCN(C(=O)c1c(O)c2c(Cl)cccc2n(C)c1=O)c1ccccc1` [SPE_K60918217], the activation at 10 µM is -1.53%.

For the molecule `Cc1nnc(C(C)C)n1C1CC2CCC(C1)N2CC[C@H](NC(=O)C1CCC(F)(F)CC1)c1ccccc1` (stereo partly drawn) [SPE_A04352665], the activation at 10 µM was -15.3%.

As for `CC(C)C(=O)OC[C@H]1O[C@@H](n2ccc(N)nc2=O)[C@](C)(F)[C@@H]1OC(=O)C(C)C` [SPE_K69726595], the activation at 10 µM is -9.49%.

Take `CC(C)(S)C(=O)N[C@@H](CS)C(=O)O` [SPE_K24697665]: the activation at 10 µM was -4.72%.

For the molecule `CN(C)c1nc(N)c(C(=O)Nc2cccnc2)nc1Cl` [SPE_K68633617], the activation at 10 µM is -11.7%.

Regarding `COc1nc(C)nc(Cl)c1NC1=NCCN1` [SPE_K77771411], the activation at 10 µM was -3.03%.

Consider `CCCCCCCCCCCCCCCCCCCCCC(=O)Nc1ccn([C@@H]2O[C@H](CO)[C@@H](O)[C@@H]2O)c(=O)n1` [SPE_K32007074], for which the activation at 10 µM is -0.592%.

For `Fc1ccc(-c2c3cccc(C(F)(F)F)c3nn2Cc2ccc(F)cc2Cl)cc1` [SPE_K54520417], the activation at 10 µM is -2.25%.

For the molecule `NC(C(=O)O)c1cc(O)cc(O)c1` (stereo not drawn) [SPE_A20589515], the activation at 10 µM was 2.18%.

For `CC(C)Cn1cnc2c1c(=O)n(C)c(=O)n2C` [SPE_K06762493], the activation at 10 µM is -8.79%.

Consider `C=CC(=O)Nc1cc(Nc2nccc(-c3c[nH]c4ccccc34)n2)c(OC)cc1N(C)CCN(C)C` [SPE_K81958169], for which the activation at 10 µM is 5.71%.

For `c1ccc(C(O[C@@H]2CCCN(CCc3ccc4c(c3)OCO4)C2)c2ccccc2)cc1` [SPE_K80451230], the activation at 10 µM is 13%.

As for `CCC[C@H](N[C@@H](C)C(=O)N1[C@H](C(=O)O)C[C@@H]2CCCC[C@@H]21)C(=O)O` [SPE_K00768353], the activation at 10 µM is -9.94%.

With `N#Cc1ccc(N2CCN(C(=O)COc3ccc4[nH]cc(CCN)c4c3)CC2)cc1` [SPE_K31092604], the activation at 10 µM turned out to be 1.38%.

As to `OC[C@H]1O[C@H](O)C[C@@H](O)[C@@H]1O` [SPE_K97808269], the activation at 10 µM was -3.49%.

As to `CN(CCCN1c2ccccc2CCc2ccccc21)CC(=O)c1ccc(Cl)cc1` [SPE_K82147103], the activation at 10 µM is -0.728%.

`C[C@]12CC[C@H](O)C[C@H]1CC[C@@H]1[C@@H]2C[C@@H](O)[C@]2(C)[C@@H](C3=CC(=O)OC3)CC[C@]12O` [SPE_K18619710]: the activation at 10 µM was -13.9%.

As to `CCCCCCCCCCCCCCCCCC(=O)OCC(O)[C@H]1OC[C@H](O)[C@H]1O` (stereo partly drawn) [SPE_A70197423], the activation at 10 µM is -4.54%.

As to `O=C(NC[C@H](O)CN1CCc2ccccc2C1)c1cc(NC2COC2)ncn1` [SPE_K70446295], the activation at 10 µM is -3.31%.

For `COC(=O)C1=C(C)NC(C)=C(C(=O)OCC(C)C)C1c1ccccc1[N+](=O)[O-]` (stereo not drawn) [SPE_A84465106], the activation at 10 µM turned out to be 0.581%.

Turning to `CCN(CC)C(=S)SSC(=S)N(CC)CC` [SPE_K32744045], the activation at 10 µM is 5.11%.

Turning to `CNC(=O)c1ccccc1Nc1nc(Nc2ccc(N3CCOCC3)cc2OC)ncc1Cl` [SPE_K21025364], the activation at 10 µM is 15.8%.

Consider `CC(C)(C)NCC(O)COc1cccc2c1CCC(=O)N2` (stereo not drawn) [SPE_A42167015], for which the activation at 10 µM was determined as 2.81%.

Turning to `C[C@@H]1C[C@H]2[C@@H]3C[C@H](F)C4=CC(=O)C=C[C@]4(C)[C@@]3(Cl)[C@@H](O)C[C@]2(C)[C@H]1C(=O)COC(=O)C(C)(C)C` [SPE_K38003476], the activation at 10 µM was -1.81%.

With `COc1ccc2cc([C@H](C)C(=O)O)ccc2c1` [SPE_K59197931], the activation at 10 µM was -3.31%.

Turning to `C[C@H](O)[C@H](O)[C@H]1CNc2[nH]c(N)nc(=O)c2N1` [SPE_K36859431], the activation at 10 µM was -1.35%.

In the case of `Cc1c(N(C)C)c(=O)n(-c2ccccc2)n1C` [SPE_K12568846], the activation at 10 µM is -3.72%.

Consider `COc1ccc(-c2cc(=O)c3c(OC)c(OC)c(OC)c(OC)c3o2)cc1OC` [SPE_K06753942], for which the activation at 10 µM came to 17.9%.

For the molecule `CC(CN(C)C)C(C)(O)Cc1ccc(Cl)cc1` (stereo not drawn) [SPE_A43809092], the activation at 10 µM was -8.69%.

`N#Cc1cccc(-c2nc(-c3cccnc3)no2)c1` [SPE_K40176866]: the activation at 10 µM is -7.54%.

Turning to `CC(C)CC(NC(=O)C1CCCN1)C(=O)NCC(N)=O` (stereo not drawn) [SPE_A09911125] (H-Pro-Leu-Gly-NH2; configuration not given here), the activation at 10 µM is -6.88%.

In the case of `CC(=O)OCC(=O)[C@@]1(O)CCC2C3CCC4=CC(=O)CC[C@]4(C)C3[C@@H](O)C[C@@]21C` (stereo partly drawn) [SPE_A65767837], the activation at 10 µM was -13.7%.

On to `O=C1c2ccccc2C(Cc2ccnc(F)c2)(Cc2ccnc(F)c2)c2ccccc21` [SPE_K89274813], for which the activation at 10 µM is -6.43%.

`Nc1nc2ccc(Cl)cc2c2nc(-c3ccco3)nn12` [SPE_K49049886]: the activation at 10 µM is 7.39%.

On to `O=C(NC(Cc1c[nH]c2ccccc12)C(=O)O)c1ccc(Cl)cc1` (stereo not drawn) [SPE_A87983072], for which the activation at 10 µM was -4.45%.

On to `COc1cc2c(cc1OC)-c1cc3ccc(OC)c(OC)c3c[n+]1CC2` [SPE_K58466253], for which the activation at 10 µM is 0.986%.

As for `Cc1ccc(=O)n(-c2ccccc2)c1` [SPE_K96862998], the activation at 10 µM is 4.03%.

In the case of `CCCCCCCN(CC)CCCC(O)c1ccc(NS(C)(=O)=O)cc1` (stereo not drawn) [SPE_A74391928], the activation at 10 µM was -5.8%.

Take `C[C@H](N)[C@H](O)c1cccc(O)c1` [SPE_K96253961]: the activation at 10 µM is -12.2%.

In the case of `O=C(O)CCn1c2c(c3ccccc31)C[C@H](NS(=O)(=O)c1ccc(F)cc1)CC2` [SPE_K08586861], the activation at 10 µM was -12%.

For `O=c1c(O)c(-c2cc(O)c(O)c(O)c2)oc2cc(O)cc(O)c12` [SPE_K43149758], the activation at 10 µM is -18.6%.

For the molecule `CCC1(c2ncc[nH]2)Cc2ccccc2O1` (stereo not drawn) [SPE_A38747044], the activation at 10 µM is 2.93%.

With `CCC(=O)c1ccc(OCC(O)CN2CCN(c3ccccc3)CC2)cc1` (stereo not drawn) [SPE_A28958257], the activation at 10 µM is -1.6%.

For `Nc1ccn([C@H]2C[C@H](O)[C@@H](CO)O2)c(=O)n1` [SPE_K91822704], the activation at 10 µM is 0.471%.

Turning to `CC(C)n1cnc2c(C(=O)N[C@H]3CN4CCC3CC4)cc(Cl)cc21` [SPE_K80725821], the activation at 10 µM is 0.494%.

On to `O=C(NC(=O)c1c(F)cccc1Cl)NC1c2ccccc2-c2ccccc21` [SPE_K24527118], for which the activation at 10 µM is -7.81%.

For the molecule `O=C(Nc1ccc(S(=O)(=O)Nc2ccccc2Cl)c(Cl)c1)c1ccccn1` [SPE_K72687424], the activation at 10 µM was -10.9%.

`Cc1ccc2c(c1CCC(=O)O)CC[C@@H](NS(=O)(=O)c1ccc(Cl)cc1)C2` [SPE_K43975632]: the activation at 10 µM amounted to 0.256%.

Take `O=C(C1CCCCC1)N1CC(=O)N2CCc3ccccc3C2C1` (stereo not drawn) [SPE_A21858158]: the activation at 10 µM is -0.34%.

For the molecule `CCCCCCCC/C=C\CCCCCCCC(=O)NCCO` [SPE_K66956375], the activation at 10 µM is -6.58%.

In the case of `CCCCOc1nc(N)c2c(n1)N(Cc1cccc(CN3CCCC3)c1)CC(=O)N2` [SPE_K73585091], the activation at 10 µM is -10.5%.

In the case of `CC(C)CNc1nc(-c2cccc3ncccc23)cn2c(-c3ccc(C(=O)NC4CC4)cc3)cnc12` [SPE_K18530250], the activation at 10 µM is -11.5%.

For `CCOC(=O)Nc1ccc(NCc2ccc(F)cc2)cc1N` [SPE_K89917372], the activation at 10 µM is -6.22%.

Consider `CC(=O)NCCc1c[nH]c2ccccc12` [SPE_K73700643], for which the activation at 10 µM was -6.27%.

As for `COc1cc(Nc2nc3ccccc3nc2NS(=O)(=O)c2ccc(NC(=O)c3ccc(C)c(OC)c3)cc2)cc(OC)c1` [SPE_K75308783], the activation at 10 µM was -7.72%.

In the case of `Cn1ncc2c(N3CCOCC3)nc(-c3cccc(O)c3)nc21` [SPE_K15858023], the activation at 10 µM was -6.72%.

As for `O=C(NC[C@H](O)CO)c1ccncc1Nc1ccc(I)cc1F` [SPE_K89014967], the activation at 10 µM is -12.6%.
